Earlier results, collected in patent publication US7402323B2, “Compositions and methods for treating skin conditions” (AkPharma, Inc., priority 2002, dated 2008).

Assays:
stratum corneum = details: normal thickness 14 cells
[1] = test system: cultured neurons and astrocytes; details: compared with control cultures or with cultures supplemented with calcium or glycerophosphate alone

Row | stratum corneum thickness after treatment (stratum corneum) [cells] | solubility in water | Structure (SMILES) | number of cells in supplemented cultures [1]
1 | 5 | – | CC1=C(/C=C/C(C)=C/C=C/C(C)=C/C(=O)O)C(C)(C)CCC1 [Retinoic acid] | –
2 | – | highly soluble | O=P([O-])([O-])OCC(O)CO.[Ca+2] (stereo not drawn) [calcium glycerophosphate, 1,2,3-propanetriol, mono(dihydrogen phosphate) calcium salt (1:1)] | more cells
